In patent US9370186B2 (priority 2012, dated 2016):
Values after ≈ are worked out from the molar mass of the structure shown. Like-named read-outs stand apart in the source and are kept apart here.

How the values were obtained:
Phytophthora infestans [1] = assay type: in vivo; settings: tomatoes, 3 days after inoculation
Phytophthora infestans [2] = experiment: whole plant or invertebrate; assay type: in vivo; settings: for Practical dose for 70% efficacy: EC70, compound alone, preventive 24 h, potato leaf discs; for EC50: Phytophthora infestans, in Solanum tuberosum, foliar, 24 h, read-out: Practical dose for 50% efficacy

SMILES | Efficacy in % found (Phytophthora infestans [1]; 5 ppm a.i.) | Practical dose for 70% efficacy (Phytophthora infestans [2]) | EC50 (Phytophthora infestans [2]) | Efficacy (%) ethaboxam alone (Phytophthora infestans [2]; ethaboxam 0.75 mg a.i./L) | Efficacy (%) ethaboxam alone (Phytophthora infestans [2]; ethaboxam 1.5 mg a.i./L) | Efficacy (%) ethaboxam alone (Phytophthora infestans [2]; ethaboxam 3 mg a.i./L) | Efficacy (%) ethaboxam alone (Phytophthora infestans [2]; ethaboxam 6 mg a.i./L) | Efficacy (%) ethaboxam alone (Phytophthora infestans [2]; ethaboxam 12 mg a.i./L) | Efficacy (%) ethaboxam alone (Phytophthora infestans [2]; ethaboxam 24 mg a.i./L) | Efficacy (%) ethaboxam alone (Phytophthora infestans [2]; ethaboxam 75 mg a.i./L) | Efficacy in % found (Phytophthora infestans [1]; 0.5 ppm a.i.) | Efficacy (%) fenamidone alone (Phytophthora infestans [2]; fenamidone 0.5 mg a.i./L) | Efficacy (%) fenamidone alone (Phytophthora infestans [2]; fenamidone 1 mg a.i./L) | Efficacy (%) fenamidone alone (Phytophthora infestans [2]; fenamidone 2 mg a.i./L) | Efficacy (%) fenamidone alone (Phytophthora infestans [2]; fenamidone 4 mg a.i./L) | Efficacy (%) fenamidone alone (Phytophthora infestans [2]; fenamidone 8 mg a.i./L) | Efficacy (%) fenamidone alone (Phytophthora infestans [2]; fenamidone 16 mg a.i./L) | Efficacy (%) fenamidone alone (Phytophthora infestans [2]; fenamidone 50 mg a.i./L)
CCNc1nc(CC)c(C(=O)NC(C#N)c2cccs2)s1 (centres unmarked) [ethaboxam, N-(cyano-2-thienylmethyl)-4-ethyl-2-(ethylamino)-5-thiazolcarboxamide] | 40% | 27.820 mg a.i./L | 15.3 mg/L (≈ 47.7 µM) | 0% | 0% | 5% | 13% | 67% | 73% | 75% |  |  |  |  |  |  |  | 
CSC1=N[C@@](C)(c2ccccc2)C(=O)N1Nc1ccccc1 [fenamidone, (S)-3,5-dihydro-5-methyl-2-(methylthio)-5-phenyl-3-(phenylamino)-4H-imidazol-4-one] |  | 9.764 mg a.i./L | 6.26 mg/L (≈ 20.1 µM) |  |  |  |  |  |  |  | 28% | 0% | 0% | 5% | 29% | 83% | 82% | 91%
